Laboratory results: patent publication US20090069300A1, “ISOQUINOLINYL AND ISOINDOLINYL DERIVATIVES AS HISTAMINE-3 ANTAGONISTS” (Wyeth, priority 2007, published 2009)

What was measured:
[1] = biological target: T1, Human Histamine H3 Receptor (Homo sapiens, UniProt Q9Y5N1); assay: Methyl histamine binding in human histamine H3 receptor cell line; conditions: read-out: H3 Binding Ki
T1 construct: expressed in transfected cells; host or cells: HEK293T (stably transfected; membranes prepared from the cells)
T1 sequence (Q9Y5N1 whole entry): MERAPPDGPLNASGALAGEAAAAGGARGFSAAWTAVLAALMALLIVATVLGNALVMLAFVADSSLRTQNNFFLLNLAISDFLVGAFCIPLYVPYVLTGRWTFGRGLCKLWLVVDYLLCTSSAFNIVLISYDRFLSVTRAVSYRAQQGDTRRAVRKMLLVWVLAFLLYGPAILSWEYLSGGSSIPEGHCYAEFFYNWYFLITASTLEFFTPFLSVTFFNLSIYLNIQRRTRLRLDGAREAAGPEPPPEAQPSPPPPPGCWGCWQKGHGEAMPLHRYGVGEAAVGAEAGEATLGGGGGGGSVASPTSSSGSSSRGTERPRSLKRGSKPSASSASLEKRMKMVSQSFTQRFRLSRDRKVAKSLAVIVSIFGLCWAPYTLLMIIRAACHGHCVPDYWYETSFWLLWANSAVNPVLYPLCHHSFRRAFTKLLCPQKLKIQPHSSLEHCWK
Outline: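 Radioligand binding on membranes (10 μg/well) from a human H3 receptor cell line, 1 nM radioligand, 1 h at 30° C. in 50 mM Tris pH 7.5. Nonspecific binding defined with 10 uM clobenpropit, followed by filtration and scintillation counting. IC50 from four-parameter fit, converted to Ki by Cheng-Prusoff.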

| Compound | melting point [°C] | Ki [1] [nM] |
| --- | --- | --- |
| CCNC(=O)c1ccc(Oc2ccc3c(c2)CCN(CCN2CCCC2)C3=O)cc1 [Example 93, N-ethyl-4-{[1-oxo-2-(2-pyrrolidin-1-ylethyl)-1,2,3,4-tetrahydroisoquinolin-6-yl]oxy}benzamide] | 215 to 216 | < 10 |
| O=C(NC1CCCC1)c1ccc(-c2ccc3c(c2)CCN(CCN2CCCC2)C3=O)cc1 [Example 55, N-cyclopentyl-4-[1-oxo-2-(2-pyrrolidin-1-ylethyl)-1,2,3,4-tetrahydroisoquinolin-6-yl]benzamide] | 258 to 260 | < 10 |
| Fc1cccc(-c2ccc3c(c2)CCN(CCN2CCCC2)C3)c1 [Example 173, 6-(3-fluorophenyl)-2-(2-pyrrolidin-1-ylethyl)-1,2,3,4-tetrahydroisoquinoline] | 272 to 274 | 50.1 to 100 |
| Fc1ccc(-c2ccc3c(c2)CCN(CCN2CCCCC2)C3)cc1 [Example 174, 6-(4-fluorophenyl)-2-(2-piperidin-1-ylethyl)-1,2,3,4-tetrahydroisoquinoline] | 272 to 274 | 50.1 to 100 |
| C[C@@H]1CCCN1CCN1Cc2cc(-c3ccc(C#N)cc3)ccc2C1=O [Example 117, (R)-4-(2-(2-(2-methylpyrrolidin-1-yl)ethyl)-1-oxoisoindolin-5-yl)benzonitrile] | 214 to 216 | 10.1 to 25 |
| CNC(=O)c1ccc(Oc2ccc3c(c2)CCN(CCN2CCCC2)C3=O)cc1 [Example 92, N-methyl-4-{[1-oxo-2-(2-pyrrolidin-1-ylethyl)-1,2,3,4-tetrahydroisoquinolin-6-yl]oxy}benzamide] | 235 to 236 | 10.1 to 25 |

Further lines, results first:

| melting point [°C] | Ki [1] [nM] | Compound |
| --- | --- | --- |
| 257 to 259 | 50.1 to 100 | c1cc2c(cc1-c1ccc3c(c1)OCO3)CCN(CCN1CCCC1)C2 [Example 176, 6-(1,3-benzodioxol-5-yl)-2-(2-pyrrolidin-1-ylethyl)-1,2,3,4-tetrahydroisoquinoline] |
| 258 to 260 | > 100 | Fc1ccc(-c2ccc3c(c2)CCN(CCN2CCCCCC2)C3)cc1 [Example 175, 2-(2-azepan-1-ylethyl)-6-(4-fluorophenyl)-1,2,3,4-tetrahydroisoquinoline] |
